Experimental data: patent publication US4764361A, “Pharmaceutical compositions” (Imperial Chemical Industries PLC, priority 1987, dated 1988)
Where “and” joins values, the source holds several entries; their conditions need not be identical. Equal values may be shown once.

Assays:
Assay type in all cases: in vivo
cardiovasculature = assay: adverse effects on the cardiovasculature after topical administration; conditions: large doses administered topically to the skin
[1] = system: oxazolone induced contact dermatitis (erythema); assay: Test C: oxazolone induced contact dermatitis in the domestic pig
Protocol: (c) in a standard test involving oxazolone induced contact dermatitis in the domestic pig (Test C).
Method: Domestic pigs were sensitised by topical application of 0.4 ml of a 10% w/v solution of oxazolone in acetone to the neck region on two occasions two weeks apart. Six paired sites were then prepared and delineated with one site from each pair to the left and one to the right of the mid-line of the back of the animal. […] The left hand site of the second three pairs was similarly treated with 0.05 ml of a second solution of the test compound in acetone at pH 5. All of the righthand sites were used as controls and were treated with 0.05 ml of acetone (acidified to pH 5 with citric acid). After 24 hours, the same treatment was repeated followed immediately by a challenge of 0.025 ml of a 1% w/v solution of oxazolone in acetone to the 1st and 4th pairs of sites, of 5% w/v solution of oxazolone in acetone to the 2nd and 5th pair of sites, and of 10% w/v solution of oxazolone in acetone to the 3rd and 6th pairs of sites. […] An inflammatory index was obtained by multiplying the area and erythema readings together. By comparison of the values for the treated and control sites, the percentage reduction in erythema of the test compound could be assessed.

[2] = system: inflammation on the mouse ear induced by the irritant, croton oil; assay: Test A: inhibition of inflammation on the mouse ear induced by croton oil; conditions: for % Inhibition / % increase in ear weight ± SEM / ED50 application rate: topical; for % Inhibition / % increase in ear weight ± SEM: 4 hours; for ED50 application rate: Test A; for activity as topical anti-inflammatory agent: application rate of 250 micrograms/ear
Protocol: (a) in a standard test involving the inhibition of inflammation on the mouse ear induced by the irritant, croton oil (Test A);
(a) Method: Groups of mice were dosed with an acetone solution of test compound or vehicle (acetone) pre-mixed with an equal volume of 4% w/v croton oil in acetone topically to the right ear (10 μl volume). Four hours later, the animals were killed and both the left (control) and right (treated) ears were removed and weighed. The percentage increase in ear weight of the treated against control was then calculated. The anti-inflammatory activity was finally expressed as percentage inhibition for the test compound dosed group in comparison with the vehicle dosed control group.

[3] = system: delayed hypersensitivity reaction to the contact irritant oxazolone; assay: Test B: inhibition of the delayed hypersensitivity reaction to oxazolone in mice; conditions: for Inhibition: 24 hours, free base in acidified acetone pH 5
Protocol: (b) in a standard test involving the inhibition of the delayed hypersensitivity reaction to the contact irritant, 4-ethoxymethylene-2-phenyloxazolone (hereinafter referred to as oxazolone) in mice (Test B); and
(a) Method: Mice were sensitised by the topical application of a 10 μl portion of a 0.5% w/v solution of oxazolone in acetone. After 7 days, a 10 μl portion of a solution of the test compound in acetone (acidified to pH 5 with citric acid*) or, for control purposes, just the acidified acetone vehicle, was applied to the right ears of the mice and immediately followed by an application of 10 μl of 0.5% w/v solution of oxazolone in acetone. After 24 hours the animals were killed, the ears removed and results calculated as for Test A above.
*Note: acidified acetone was used to eliminate any possible reaction between the basic test compound of formula I and the oxazolone.]

[4] = Average of experiments 1-3, 2% w/v in acetone pH 5
[5] = Experiment 1, 2% w/v in acetone pH 5, listed as (-)-optically active (S) form
[6] = Experiment 2, 2% w/v in acetone pH 5
[7] = Experiment 3, 2% w/v in acetone pH 5
[8] = cream formulation II, 0.25% w/w
[9] = 1% w/v in aqueous ethanol containing 40% w/v N-methylpyrrolidone

In the case of `CC(C)C(=O)NCCNCC(O)COc1ccccc1` (racemic) [compound of formula I, N-(2-[2-hydroxy-3-phenoxypropyl]aminoethyl)isobutyramide], the “adverse effects on the cardiovasculature” value (cardiovasculature) is reported as “no adverse effects on the cardiovasculature” and the “overt toxic or adverse effects” value ([1]; during Test C) is reported as “no overt toxic or adverse effects were observed”.
For `CC(C)C(=O)NCCNCC(O)COc1ccccc1` (racemic) [racemate, N-(2-[2-hydroxy-3-phenoxypropyl]aminoethyl)isobutyramide], the “% Inhibition” value ([2]; 2.5 μg/ear) was 25.6%, the “% increase in ear weight ± SEM” value ([2]; 2.5 μg/ear) was 59.1 ± 5.92% and the “% Inhibition” value ([2]; 25 μg/ear) was 49.3%. For the same compound, the “% increase in ear weight ± SEM” value ([2]; 25 μg/ear) was 40.2 ± 4.88%, the “% Inhibition” value ([2]; 250 μg/ear) was 61.8% and the “% increase in ear weight ± SEM” value ([2]; 250 μg/ear) was 30.3 ± 4.0%. For the same compound, the ED50 application rate [2] was 44 micrograms/ear.
In the case of `CC(C)C(=O)NCCNC[C@H](O)COc1ccccc1` [(-)-(S) form, (-)-N-(2-[2-hydroxy-3-phenoxypropyl]aminoethyl)isobutyramide], the “% of sites in which erythema is inhibited by 30%” value [1, 4] is reported as 71%, the “% of sites in which erythema is inhibited by 50%” value [1, 4] is reported as 53% and the “% of sites in which erythema is inhibited by 70%” value [1, 4] is reported as 16%. For the same compound, the “% of sites in which erythema is inhibited by 30%” value [1, 5] was 80% and 73%, the “% of sites in which erythema is inhibited by 50%” value [1, 5] was 60% and 36% and the “% of sites in which erythema is inhibited by 30%” value [1, 6] was 50%. For the same compound, the “% of sites in which erythema is inhibited by 50%” value [1, 6] was 50%, the “% of sites in which erythema is inhibited by 70%” value [1, 6] was 17% and the “% of sites in which erythema is inhibited by 30%” value [1, 7] was 83%. The “% of sites in which erythema is inhibited by 50%” value [1, 7] was 67%, the “% of sites in which erythema is inhibited by 70%” value [1, 7] was 17% and the “% of sites in which erythema is inhibited by 30%” value [1, 8] was 86%. For the same compound, the “% of sites in which erythema is inhibited by 50%” value [1, 8] was 29%, the “% of sites in which erythema is inhibited by 70%” value [1, 8] was 14% and the “% of sites in which erythema is inhibited by 30%” value ([1]; cream formulation II, 0.5% w/w) was 86%. For the same compound, the “% of sites in which erythema is inhibited by 50%” value ([1]; cream formulation II, 0.5% w/w) was 29%, the “% of sites in which erythema is inhibited by 70%” value ([1]; cream formulation II, 0.5% w/w) was 29% and the “% of sites in which erythema is inhibited by 30%” value ([1]; cream formulation II, 1% w/w) was 88%. For the same compound, the “% of sites in which erythema is inhibited by 50%” value ([1]; cream formulation II, 1% w/w) was 75%, the “% of sites in which erythema is inhibited by 70%” value ([1]; cream formulation II, 1% w/w) was 50% and the “% of sites in which erythema is inhibited by 30%” value ([1]; cream formulation II, 2% w/w) was 100%. The “% of sites in which erythema is inhibited by 50%” value ([1]; cream formulation II, 2% w/w) was 80%, the “% of sites in which erythema is inhibited by 70%” value ([1]; cream formulation II, 2% w/w) was 80% and the “% Inhibition” value ([2]; 4.9 μg/ear) was 23.8%. The “% increase in ear weight ± SEM” value ([2]; 4.9 μg/ear) was 65.2 ± 3.17%, the “% Inhibition” value ([2]; 14.8 μg/ear) was 46.5% and the “% increase in ear weight ± SEM” value ([2]; 14.8 μg/ear) was 45.8 ± 3.96%. For the same compound, the “% Inhibition” value ([2]; 44.4 μg/ear) was 52.2%, the “% increase in ear weight ± SEM” value ([2]; 44.4 μg/ear) was 40.9 ± 4.02% and the “% Inhibition” value ([2]; 133.3 μg/ear) was 66.5%. For the same compound, the “% increase in ear weight ± SEM” value ([2]; 133.3 μg/ear) was 28.6 ± 3.56%, the “% Inhibition” value ([2]; 400 μg/ear) was 91.8% and the “% increase in ear weight ± SEM” value ([2]; 400 μg/ear) was 7.0 ± 1.25%. The ED50 application rate [2] was 29 micrograms/ear, the Inhibition ([3]; 2.5 μg/ear) was 20 ± 8% and the Inhibition ([3]; 25 μg/ear) was 35 ± 9%. For the same compound, the Inhibition ([3]; 250 μg/ear) was 60 ± 7% and the ED50 ([3]; calculated from the dose-inhibition table) was 91 μg/ear.
With `CCCCC(=O)O[C@]1(C(=O)CO)[C@@H](C)C[C@H]2[C@@H]3CCC4=CC(=O)C=C[C@]4(C)[C@@]3(F)[C@@H](O)C[C@@]21C` [BV, betamethasone-17-valerate, reference compound] the “% of sites in which erythema is inhibited by 30%” value [1, 9] was 75%, the “% of sites in which erythema is inhibited by 50%” value [1, 9] was 38% and the “% of sites in which erythema is inhibited by 70%” value [1, 9] was 25%.
`C[C@]12CCC(=O)C=C1CC[C@@H]1[C@@H]2[C@@H](O)C[C@@]2(C)[C@H]1CC[C@]2(O)C(=O)CO` [hydrocortisone, reference compound] was tested, and the “% of sites in which erythema is inhibited by 30%” value [1, 9] was 67%, the “% of sites in which erythema is inhibited by 50%” value [1, 9] was 28% and the “% of sites in which erythema is inhibited by 70%” value [1, 9] was 6%. For the same compound, the Inhibition ([2]; similar test conditions, 25 μg/ear) was “approximately 70%”.
For `CC(C)NCC(O)COc1cccc2ccccc12` (stereo not drawn) [propranolol, reference compound], the “activity as topical anti-inflammatory agent” value (“activity” below) [2] was “inactive”.
For `CC(C)C(=O)NCCNC[C@@H](O)COc1ccccc1` [reference compound], the “activity” value [2] was “inactive”.
`O=C(NCCNCC(O)COc1ccc(O)cc1)N1CCOCC1` (stereo not drawn) [xamoterol, reference compound] was tested, and the “activity” value [2] was “inactive”.
